We go through twelve compounds from US6667278B2, “Non-steroidal mimetics of brassinolide” (University Technologies International Inc., priority 2000, dated 2003).

One data set can be described thus: solubility in ethanol. It counts as physicochemical.
Data set [1] deals with dwarf rice Oryza satina var. Tan-ginbozu. Nature of the data set: rice leaf lamina inclination bioassay. It counts as in vivo. As for the experimental part: Mimetics 3-12, along with brassinolide for comparison, were subjected to the rice leaf lamina inclination bioassay^30. This technique is a rapid, highly sensitive and convenient means for detecting and measuring brassinosteroid bioactivity. Strongly active brassinosteroids such as brassinolide can be readily detected at doses as low as 1 ng/plant. The assay is based on the downward movement response of the second leaf lamina angle of rice seedlings to the application of active brassinosteroids. Thus, a decrease in the leaf angle occurs from about 160 degrees (i.e. nearly upright) in control plants to angles of less than 90 degrees when a strong response is measured. A plot of leaf lamina angle vs. the logarithm of the dose in ng provides a convenient indication of bioactivity.
Brassinosteroids show synergy with auxins such as indole-3-acetic acid (IAA) in this bioassay^7,30,31. Thus, co-application of a given dose of the brassinosteroid with IAA generally elicits a similar decrease in the leaf lamina angle as would be observed with a dose one or two orders of magnitude higher of the brassinosteroid alone. […] The bioassays of mimetics 3-12 were therefore run both in the presence and absence of 1000 ng of added IAA and mimetic 11 was also bioassayed in the presence of 5000 ng of IAA.
Mimetics 3-12, along with brassinolide as a standard, were tested for biological activity by means of the rice leaf lamina assay, using a dwarf rice Oryza satina var. Tan-ginbozu, as described^30. The compounds were dissolved in 95% ethanol, except for mimetic 11 where DMSO was used due to poor solubility in ethanol. To a solution of mimetic 11 in 50 microliters of DMSO was added 550 microliters of a 2.5% aqueous solution of Atlas®, an ICI formulating material, to improve uptake. The test solutions were then applied as 0.5 μl microdrops to the rice plants 48 h after planting the germinated seeds on 0.8% water agar. At high doses, several rounds of application of the 0.5 μl microdrops were required to attain the desired dose per plant. Where IAA was a co-treatment, 1,000 or 5,000 ng of IAA was similarly applied per plant ca. 2 h prior to the application of brassinolide and mimetics 3-12. The resultant leaf lamina angle was measured 60-65 h later. For an individual bioassay, each data point is the mean of the leaf angles from ca. 36 plants for doses up to 100 ng and from ca. 24 plants for the 1000 and 10,000 ng doses. Parallel control applications of solvent and IAA (1000 ng) were also carried out. […] Similarly, the results for brassinolide plus IAA, which were reported earlier,^14,16,17a are not shown here for purposes of clarity.

For another data set, the system named is rice, beans and others. Particulars: applied exogenously; cited from earlier work.
The test system of data set [2] is dwarf rice Oryza satina var. Tan-ginbozu. The note with it: in vivo; cited from earlier work.
Setting [3] is: applied together with IAA in 95% ethanol.
The mark [4] stands for this setting: all dosage levels, with or without IAA application.

With `O=C1CC=C(C=CC2=CCC(=O)C3CC(O)C(O)CC23)C2CC(O)C(O)CC12` (mixture of isomers) [Mimetic 11, (E)-1,2-Bis[trans-(4aα,8aβ)-4-oxo-6α,7α-dihydroxy-4a,5,6,7,8,8a-hexahydro-(3H)-naphthyl]ethene and its Meso Isomer], the solubility in ethanol entry in “solubility in ethanol” is reported as “poor”. The “bioactivity in the rice leaf lamina inclination assay” value (“bioactivity” for short) in data set [1] (IAA increased to 5000 ng, DMSO diluted with 2.5% aqueous Atlas, compared with 1000 ng IAA) is “even further enhanced”; in data set [1] (applied together with 1000 ng of IAA, DMSO diluted with 2.5% aqueous Atlas), “active across a wide range of doses”. Also, the “dose at which significant activity is displayed” value in data set [1] (with 5000 ng of IAA, DMSO/Atlas) was found to be 0.01 ng. Regarding `Oc1ccc(C=Cc2ccc(O)c3c2CC(O)C(O)C3)c2c1CC(O)C(O)C2` (mixture of isomers) [Mimetic 6, (E)-(±)-1,2-Bis[4,6α,7α-trihydroxy-5,6,7,8-tetrahydronaphthyl]ethene and its Meso Isomer], in data set [1] (setting [3]), the “bioactivity” value is recorded as “significant bioactivity” and the “dose that produced a significant bioassay response” value stood at 10000 ng. For the compound `Oc1ccc(C#Cc2ccc(O)c3c2CC(O)C(O)C3)c2c1CC(O)C(O)C2` (single isomer, unassigned) [Mimetic 3, (±)-1,2-Bis[4,6α,7α-trihydroxy-5,6,7,8-tetrahydronaphthyl]ethyne and its Meso Isomer], in data set [1] (setting [3]), the “bioactivity” value is on record as “modest, but statistically significant activity” and the “dose that produced a significant bioassay response” value is 10,000 ng.

Regarding `OC1Cc2ccc(/C=C/c3ccc4c(c3)CC(O)C(O)C4)cc2CC1O` (single isomer, unassigned) [Mimetic 7, (E)-(±)-1,2-Bis[6α,7α-dihydroxy-5,6,7,8-tetrahydronaphthyl]ethene and its Meso Isomer], the “bioactivity” value in data set [1] (setting [4]) is “completely inactive”. Same read-out and setting: under `OC1Cc2ccc(C#Cc3ccc4c(c3)CC(O)C(O)C4)cc2CC1O` (single isomer, unassigned) [Mimetic 5, (±)-1,2-Bis[6α,7α-dihydroxy-5,6,7,8-tetrahydronaphthyl]ethyne and its Meso Isomer] stands “completely inactive”. Turning to `CC(C)[C@H](C)[C@@H](O)[C@H](O)[C@@H](C)[C@H]1CC[C@H]2[C@@H]3COC(=O)[C@H]4C[C@H](O)[C@H](O)C[C@]4(C)[C@H]3CC[C@]12C` [brassinolide, (22R, 23R, 24S)-2α,3α,22,23-tetrahydroxy-24-methyl-B-homo-7-oxa-5α-cholestan-6-one], the “dose as low as which biological activity is manifested” value in the data set on rice, beans and others is recorded as “one”. In addition, in data set [2], the “dose as low as which readily detected” value is recorded as 1 ng/plant. Consider `O=C(O)Cc1c[nH]c2ccccc12` [IAA, indole-3-acetic acid, reference compound], for which the “effect in the bioassay” value in data set [1] (applied on its own) is listed as “without significant effect”.

For `O=C1CCC(=NN=C2CCC(=O)C3CC(O)C(O)CC23)C2CC(O)C(O)CC12` (single isomer, unassigned) [Mimetic 12, 6,7-Dihydroxy-2,3,4a,5,6,7,8,8a-octahydro-4-oxo-naphthalenone Azine (Mixture of Isomers)], the “bioactivity” value in data set [1] (setting [4]) is “devoid of activity”. For the compound `O=C1CC=C(C#CC2=CCC(=O)C3CC(O)C(O)CC23)C2CC(O)C(O)CC12` (mixture of isomers) [Mimetic 10, (±)-1,2-Bis[trans-(4aα,8aβ)-4-oxo-6α,7α-dihydroxy-4a,5,6,7,8,8a-hexahydro-(3H)-naphthyl]ethyne and its Meso Isomer], the “bioactivity” value in data set [1] (setting [4]) is given as “devoid of activity”. Take `Oc1ccc(CCc2ccc(O)c3c2CC(O)C(O)C3)c2c1CC(O)C(O)C2` (single isomer, unassigned) [Mimetic 8, (±)-1,2-Bis[4,6α,7α-trihydroxy-5,6,7,8-tetrahydronaphthyl]ethane and its Meso Isomer]: in data set [1] (setting [4]), the “bioactivity” value is recorded as “no bioactivity”. Same read-out and setting: under `Oc1cc2c(O)ccc(CCc3ccc(O)c4cc(O)c(O)cc34)c2cc1O` [Mimetic 9, 1,2-Bis(4,6,7-trihydroxynaphthyl)ethane] stands “no bioactivity”. Consider `Oc1cc(C#Cc2ccc3c(c2)CC(O)C(O)C3)cc2c1CC(O)C(O)C2` (racemic) [Mimetic 4, (±)-1-[4,6α,7α-Trihydroxy-5,6,7,8-tetrahydronaphthyl]-2-[6α′,7α∝-dihydroxy-5′,6′,7′,8′-tetrahydronaphthyl]ethyne as Two (±) Pairs], for which, in data set [1] (setting [3]), the “bioactivity” value was “modest, but statistically significant activity”.
